Measured values from patent US7838271B2, “Microbiological method for producing amides” (priority 2001, dated 2010).

What follows are compounds tested on Rhodococcus sp. FZ4 nitrile hydratase (assay: Substrate specificity of nitrile hydratase activity, resting cells). Details: not given.
Format: cell-based
Protocol: (§1) Nitrile hydratase activity was determined by incubating a reaction mixture comprising 3-cyanopyridine (1.0 M; 1.0 ml), potassium phosphate buffer (0.1 M, pH 7.0; 0.5 ml) and cell suspension (0.5 ml) with stirring at 20° C. for 5 min. The reaction was stopped by adding HCI (5 M; 0.1 ml). After filtration (0.2 μm filter) of the reaction mixture, the amount of nicotinamide produced was determined by means of HPLC (Waters Spherisorb 5 μ ODS2 (4.6×150 mm); KH2P04/H3P04 (10 mM; pH 2.8)/acetonitrile=9:1 (v/v); 1 ml/min; 230 nm). The total activity is expressed as μmol of nicotinamide produced/ (min×ml) and the specific activity is expressed as μmol of nicotinamide produced/(min×ml×OD610 nm).
Rhodococcus sp. FZ4 nitrile hydratase activity with respect to different substrates was determined according to Example 1, except that the appropriate substrate was used instead of 3-cyanopyridine and that the HPLC conditions were modified according to the substrate used.

SMILES	Relative activity
N#Cc1ccccc1Cl [o-Chlorobenzonitrile]	0%
N#Cc1ccccn1 [2-Cyanopyridine]	39.3%
C=C(C)C#N [Methacrylonitrile]	3.64%
CC=CC#N [Crotononitrile]	92.1%
N#Cc1ccccc1 [Benzonitrile]	41.7%
CCCC#N [Butyronitrile]	466%
C=CC#N [Acrylonitrile]	498%
N#Cc1ccc(Cl)cc1 [p-Chlorobenzonitrile]	8.25%
N#Cc1cccc(Cl)c1 [m-Chlorobenzonitrile]	39.3%
CCC#N [Propionitrile]	412%
N#Cc1ccncc1 [4-Cyanopyridine]	98.4%

The compounds below were run on Rhodococcus sp. FZ4 (assay: not given). Details: not given.
Format: cell-based
Protocol: (§2) The preculture medium of Table 2 was inoculated with strain Rhodococcus sp. FZ4 (DSM 13597), followed by incubation with shaking at 28° C. for 1 to 2 days. The preculture was transferred into the culture medium of Table 5, which contained different inducers, and cultured with shaking at 28° C. for 3 days. Nitrile hydratase activity was determined according to Example 1. Rhodococcus sp.

SMILES	Growth
N#Cc1ccccc1 [Benzonitrile]	5.62 OD610 nm
C=CC(N)=O [Acrylamide]	5.17 OD610 nm

Same assay, conditions: culture medium with inducer 0.2% (w/v), 28° C., 3 days

SMILES	Growth
NC(=O)c1ccncc1 [Isonicotinamide]	5.03 OD610 nm
CC(C)C(N)=O [Isobutyramide]	3.55 OD610 nm
C/C=C/C(N)=O [Crotonamide]	9.32 OD610 nm
CCC(N)=O [Propionamide]	5.17 OD610 nm
CCCCC(N)=O [Valeramide]	5.61 OD610 nm
CC(C)C#N [Isobutyronitrile]	5.24 OD610 nm
N#CCC(N)=O [Cyanoacetamide]	4.75 OD610 nm
C=C(C)C#N [Methacrylonitrile]	4.61 OD610 nm
CC=CC#N [Crotononitrile]	8.24 OD610 nm
O=C1CCCCCN1 [ε-Caprolactam]	4.44 OD610 nm
CC=CCC#N [3-Pentenenitrile]	4.62 OD610 nm
CC(C)CCC#N [Isocaprononitrile]	4.72 OD610 nm
C=C(C)C(N)=O [Methacrylamide]	4.55 OD610 nm
CCCC#N [Butyronitrile]	5.26 OD610 nm
CC(C)CC#N [Isovaleronitrile]	3.22 OD610 nm
C=CC#N [Acrylonitrile]	3.27 OD610 nm
CCCC(N)=O [Butyramide]	4.7 OD610 nm
CCCCCC#N [Caprononitrile]	4.54 OD610 nm
NC(=O)c1ccccc1 [Benzamide]	3.88 OD610 nm
CCC#N [Propionitrile]	4.72 OD610 nm
CCCCC#N [Valeronitrile]	3.70 OD610 nm
NC(N)=O [Urea]	6.16 OD610 nm

The compounds below were run on purified Rhodococcus sp. FZ4 nitrile hydratase (assay: Substrate specificity of purified nitrile hydratase). Details: not given.
Format: biochemical
Protocol: A reaction mixture comprising nitrile hydratase solution (0.695 μmol/min; 0.025 ml), different substrates (0.500 ml) and potassium phosphate buffer (0.1 M; pH 7.0; 0.475 ml) was incubated at 20° C. for 5 to 10 min. The concentrations of the substrates used were in the range from 0.015 to 0.250 M. The reaction was stopped by adding MeOH. The amount of amide produced was determined by means of HPLC.

SMILES	Relative activity
N#Cc1ccccc1Cl [o-Chlorobenzonitrile]	0%
N#Cc1ccccn1 [2-Cyanopyridine]	36.7%
CC=CC#N [Crotononitrile]	114%
N#Cc1ccccc1 [Benzonitrile]	75.6%
C=C(C)C(N)=O [Methacrylamide]	1.39%
CCCC#N [Butyronitrile]	578%
C=CC#N [Acrylonitrile]	774%
N#Cc1ccc(Cl)cc1 [p-Chlorobenzonitrile]	8.31%
N#Cc1cccc(Cl)c1 [m-Chlorobenzonitrile]	66.5%
CCC#N [Propionitrile]	693%
N#Cc1ccncc1 [4-Cyanopyridine]	92.8%

The compounds below were run on Rhodococcus rhodochrous J1 nitrile hydratase (assay: Substrate specificity of nitrile hydratase activity (comparison strain)). Details: not given.
Format: cell-based

SMILES	Relative activity
N#Cc1ccccc1Cl [o-Chlorobenzonitrile]	2.8%
N#Cc1ccccn1 [2-Cyanopyridine]	45%
C=C(C)C#N [Methacrylonitrile]	87%
CC=CC#N [Crotononitrile]	78%
N#Cc1ccccc1 [Benzonitrile]	27%
CCCC#N [Butyronitrile]	26%
C=CC#N [Acrylonitrile]	478%
N#Cc1ccc(Cl)cc1 [p-Chlorobenzonitrile]	13%
N#Cc1cccc(Cl)c1 [m-Chlorobenzonitrile]	43%
CCC#N [Propionitrile]	435%
N#Cc1ccncc1 [4-Cyanopyridine]	70%

Each compound was assayed on purified Rhodococcus sp. FZ4 nitrile hydratase (assay: not given). Details: not given.
Format: biochemical
Protocol: (§3) A solution comprising nitrile hydratase solution (0.695 μmol/min; 0.025 ml), potassium phosphate buffer (0.1 M; pH 7.0; 0.475 ml), distilled water (0.150 ml) and different potential inhibitors (0.100 ml) was incubated at 20° C. for 5 min. This was followed by the addition of 3-cyanopyridine (1.0 M; 0.250 ml). The concentration of the inhibitors in the reaction mixture was 1.0 mM. The reaction mixture was incubated at 20° C. for 10 min. The reaction was stopped by adding MeOH. The amount of nicotinamide produced was determined by means of HPLC according to Example 1.

SMILES	Relative activity
O=C(O)c1cc(SSc2ccc([N+](=O)[O-])c(C(=O)O)c2)ccc1[N+](=O)[O-] [5,5′-Dithiobis(2-nitrobenzoic acid)]	93.4%
O=S(=O)(O)c1cc(O)c(O)c(S(=O)(=O)O)c1 [Tiron]	114%
O=S(=O)(F)Cc1ccccc1 [Phenylmethanesulfonyl fluoride]	110%
CCN1C(=O)C=CC1=O [N-Ethylmaleinimide]	95.3%
OCCS [2-Mercaptoethanol]	76.3%
O=C(O)CN(CCN(CC(=O)O)CC(=O)O)CC(=O)O [EDTA, Ethylenediaminetetraacetic acid]	100%
Oc1cccc2cccnc12 [8-Hydroxyquinoline]	97.8%
c1cnc2c(c1)ccc1cccnc12 [1,10-Phenanthroline]	106%
O=C(O)CI [Iodoacetate]	96.7%
c1ccc(-c2ccccn2)nc1 [2,2′-Bipyridyl]	97.8%
NNc1ccccc1 [Phenylhydrazine]	84.6%
O=C(O)c1cc[c]([Hg][Cl])cc1 [p-Chloromercuribenzoic acid]	187%
N[C@@H]1CONC1=O [D-Cycloserine]	86.3%
O[C@H](CS)[C@H](O)CS (racemic) [Dithiothreitol]	103%
NO [Hydroxylamine]	1.34%
NC(N)=O [Urea]	106%
NCCS [Cysteamine]	99.1%

The compounds below were run on purified Rhodococcus sp. FZ4 nitrile hydratase (assay: Influence of metal ions on the activity of purified nitrile hydratase). Details: metal ions 0.1 mM (footnote b); no addition = 100.
Format: biochemical
Protocol: as §3
The influence of metal ions on the activity of purified nitrile hydratase was carried out according to Example 24, but with the addition of metal ions instead of potential inhibitors. […]

SMILES	Relative activity
[Cl][Hg][Cl] [HgCl2]	0%

Same assay, conditions: metal ions 1.0 mM; no addition = 100

SMILES	Relative activity
O=S(=O)([O-])[O-].[Zn+2] [ZnSO4]	121%
[Cl][Fe]([Cl])[Cl] [FeCl3]	105%
[Ca+2].[Cl-].[Cl-] [CaCl2]	113%
O=S(=O)([O-])[O-].[Cu+2] [CuS04]	177%
[Cl][Ni][Cl] [NiCl2]	123%
[Cl][Mn][Cl] [MnCl2]	123%
O=[N+]([O-])[O-].[Ag+] [AgNO3]	0%

The compounds below were run on Rhodococcus sp. FZ4 nitrile hydratase (assay: not given). Details: not given.
Format: cell-based
Protocol: as §1, §2

SMILES	Specific activity	Total activity
N#Cc1ccccc1 [Benzonitrile]	7.17 μmol/(min × ml × OD610 nm)	40.3 µmol/min/mL
C=CC(N)=O [Acrylamide]	11.7 μmol/(min × ml × OD610 nm)	60.5 µmol/min/mL

Same assay, conditions: culture medium with inducer 0.2% (w/v), 28° C., 3 days; substrate 3-cyanopyridine

SMILES	Specific activity	Total activity
NC(=O)c1ccncc1 [Isonicotinamide]	2.17 μmol/(min × ml × OD610 nm)	10.9 µmol/min/mL
CC(C)C(N)=O [Isobutyramide]	109 μmol/(min × ml × OD610 nm)	387 µmol/min/mL
C/C=C/C(N)=O [Crotonamide]	59.9 μmol/(min × ml × OD610 nm)	558 µmol/min/mL
CCC(N)=O [Propionamide]	28.7 μmol/(min × ml × OD610 nm)	149 µmol/min/mL
CCCCC(N)=O [Valeramide]	57.5 μmol/(min × ml × OD610 nm)	322 µmol/min/mL
CC(C)C#N [Isobutyronitrile]	52.1 μmol/(min × ml × OD610 nm)	273 µmol/min/mL
N#CCC(N)=O [Cyanoacetamide]	6.50 μmol/(min × ml × OD610 nm)	30.9 µmol/min/mL
C=C(C)C#N [Methacrylonitrile]	71.5 μmol/(min × ml × OD610 nm)	330 µmol/min/mL
CC=CC#N [Crotononitrile]	49.4 μmol/(min × ml × OD610 nm)	407 µmol/min/mL
O=C1CCCCCN1 [ε-Caprolactam]	9.08 μmol/(min × ml × OD610 nm)	40.3 µmol/min/mL
CC=CCC#N [3-Pentenenitrile]	13.4 μmol/(min × ml × OD610 nm)	62 µmol/min/mL
CC(C)CCC#N [Isocaprononitrile]	28.5 μmol/(min × ml × OD610 nm)	134 µmol/min/mL
C=C(C)C(N)=O [Methacrylamide]	125 μmol/(min × ml × OD610 nm)	569 µmol/min/mL
CCCC#N [Butyronitrile]	58.4 μmol/(min × ml × OD610 nm)	307 µmol/min/mL
CC(C)CC#N [Isovaleronitrile]	23.2 μmol/(min × ml × OD610 nm)	74.7 µmol/min/mL
C=CC#N [Acrylonitrile]	1.81 μmol/(min × ml × OD610 nm)	
CCCC(N)=O [Butyramide]	73.2 μmol/(min × ml × OD610 nm)	344 µmol/min/mL
CCCCCC#N [Caprononitrile]	23.0 μmol/(min × ml × OD610 nm)	104 µmol/min/mL
NC(=O)c1ccccc1 [Benzamide]	2.12 μmol/(min × ml × OD610 nm)	8.24 µmol/min/mL
CCC#N [Propionitrile]	20.3 μmol/(min × ml × OD610 nm)	95.8 µmol/min/mL
CCCCC#N [Valeronitrile]	32.4 μmol/(min × ml × OD610 nm)	120 µmol/min/mL
NC(N)=O [Urea]	0.918 μmol/(min × ml × OD610 nm)	5.66 µmol/min/mL
